Tested on: 349418-098-R-PDC complex spheroid viability
Assay: Anticancer human tumor 349418-098-R-PDC patient-derived lung adenocarcinoma cell line growth inhibition
Conditions: for IC50: curve of first compound; for viability, T/C: stronger effect = lower value
Description: Multicellular complex tumor spheroid response to LSD1 Inhibitor Iadademstat in combination with a variety of drugs and investigational agents in selected tumor cell lines
The current study was undertaken to assess response to LSD1 inhibitors in combination with standard-of-care drugs and investigational agents in solid tumor complex spheroid models as well as in the K-562 leukemia. Complex spheroids include a stromal component modeled by human endothelial cells (HUVEC) and fibroblasts modeled by human mesenchymal stem cells (MSCs). The concentration ranges selected for each drug and investigational agent were based upon clinically achievable concentrations if the clinical Cmax of the agent was known.
Compounds. The drugs and investigational agents used in this study are listed on Table 1. All of the agents used, including staurosporine (NSC755774) and gemcitabine (NSC613327), were obtained from the Developmental Therapeutics Program, NCI. FDA-approved anticancer drugs are available from the NCI at http://dtp.nci.nih.gov/branches/dscb/oncology_drugset_explanation.html. Drugs and investigational agents were >95% pure by proton nuclear magnetic resonance (NMR) and liquid chromatography/mass spectrometry (LC/MS). Stock solutions were prepared at 400x in DMSO, stored at -70 degrees C, and diluted in fresh medium prior to their use. The final concentration of DMSO in cell culture wells never exceeded 0.25% (v/v). The FDA-approved anticancer drug set is available from the Developmental Therapeutics Program at https://dtp.cancer.gov/organization/dscb/obtaining/available_plates.htm. All drugs and investigational agents were tested over a range starting from a high concentration at or near the clinical Cmax and decreasing in half-log increments. If the clinical Cmax for an agent had not been determined, the highest concentration tested was 10 microM.
Cell Lines. The patient-derived cancer cell (PDC) lines: 292921-168-R-J2-PDC, K24384-001-R-PDC, and 521955-158-R2-J5-PDC pancreatic carcinomas, 556581-035-R-J1 ovarian carcinoma, 324938-238-R-J1-PDC, 855422-203-R-J1-PDC and 883617-216-R-J1-PDC urothelial bladder carcinomas, 743489-274-T-PDC renal cell carcinoma, 138582-R-J1 Merkel cell tumor, K60290-347-R-J1 and K57222-313-R-J1-PDC glioblastomas, 653999-131-R-J2-PDC, LG0703-F948-PDC, and 349418-098-R-PDC non-small cell lung carcinomas, 885512-296-R-J2-PDC, 171881-019-R-J1-PDC breast carcinomas and 186277-243-T-J2-PDC and 233499-124-R-J2-PDC colon carcinomas were obtained from the NCI Patient-Derived Models Repository (PDMR, https://pdmr.cancer.gov). The established cell lines NCI/ADR-RES (RRID:CVCL_14520 and OVCAR-5 (RRID:CVCL_1628) ovarian carcinomas, 786-O (RRID:CVCL_1051) and A498 (RRID:CVCL_A498) renal cell carcinoma, NCI-H211 (ATCC, cat. CRL-5824; RRID:CVCL_1529), NCI-H196 (ATCC, cat. CRL-5823, RRID:CVCL_1509), SW 1271 (ATCC, cat. CRL-2177, RRID:CVCL_1716) and NCI-H1876 (ATCC, cat. CRL-5902, RRID:CVCL_1503) small cell lung carcinomas, MDA-MB-231 (RRID:CVCL_0062) and MDA-MB-468 (RRID:CVCL_0419)breast carcinomas (10-12). Pooled donor human umbilical vein endothelial cells (HUVEC, Lonza, cat. CC-2519) and human mesenchymal stem cells (hMSC, Lonza, cat. PT-2501) were purchased from Lonza (Walkersville, MD).
Cell Culture. All cells were maintained in an incubator at 37 degrees C and 5% CO2 with 95% humidity. The PDC lines were cultured according to standard operating procedures established by the NCI PDMR (https://pdmr.cancer.gov). Briefly all PDCs were thawed and cultured in Matrigel-coated flasks prepared with a working solution of 1X Ham's F-12 nutrient mix, without supplementation (Invitrogen, Waltham, MA, cat. 11765054), 100 U/mL penicillin-streptomycin (Invitrogen, cat. 15140122), and 2.5% Matrigel (Corning Inc., Corning, NY, cat. 354248) for the first three passages. […]
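Also: spheroids exposed to agents for seven days before readout.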
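For viability, T/C in this document: 100% = DMSO vehicle control wells.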

Nc1ccn(C2OC(CO)C(O)C2(F)F)c(=O)n1 (stereo not given) + NC1CC1c1ccc(-c2cccc(O)c2)cc1
IC50 (second compound 0.1 µM): < 0.949 nM | IC50 (second compound 0.316 µM): < 0.949 nM | IC50 (second compound 1 µM): < 0.949 nM | IC50 (second compound 3.16 µM): < 0.949 nM | IC50 (second compound 10 µM): < 0.949 nM | viability, T/C (second compound 0.1 µM, first compound 0.000949 µM): 13.3% | viability, T/C (second compound 0.1 µM, first compound 0.003 µM): 4.68% | viability, T/C (second compound 0.1 µM, first compound 0.00949 µM): 4.34% | viability, T/C (second compound 0.1 µM, first compound 0.03 µM): 4.35% | viability, T/C (second compound 0.1 µM, first compound 0.0949 µM): 3.93% | viability, T/C (second compound 0.1 µM, first compound 0.3 µM): 4.06% | viability, T/C (second compound 0.316 µM, first compound 0.000949 µM): 14.1% | viability, T/C (second compound 0.316 µM, first compound 0.003 µM): 3.77% | viability, T/C (second compound 0.316 µM, first compound 0.00949 µM): 3.96% | viability, T/C (second compound 0.316 µM, first compound 0.03 µM): 3.75% | viability, T/C (second compound 0.316 µM, first compound 0.0949 µM): 3.4% | viability, T/C (second compound 0.316 µM, first compound 0.3 µM): 3.31% | viability, T/C (second compound 1 µM, first compound 0.000949 µM): 15.9% | viability, T/C (second compound 1 µM, first compound 0.003 µM): 4.07% | viability, T/C (second compound 1 µM, first compound 0.00949 µM): 4.17% | viability, T/C (second compound 1 µM, first compound 0.03 µM): 3.99% | viability, T/C (second compound 1 µM, first compound 0.0949 µM): 3.7% | viability, T/C (second compound 1 µM, first compound 0.3 µM): 3.81% | viability, T/C (second compound 3.16 µM, first compound 0.000949 µM): 18.6% | viability, T/C (second compound 3.16 µM, first compound 0.003 µM): 4.9% | viability, T/C (second compound 3.16 µM, first compound 0.00949 µM): 4.67% | viability, T/C (second compound 3.16 µM, first compound 0.03 µM): 4.52% | viability, T/C (second compound 3.16 µM, first compound 0.0949 µM): 3.81% | viability, T/C (second compound 3.16 µM, first compound 0.3 µM): 3.95% | viability, T/C (second compound 10 µM, first compound 0.000949 µM): 17.2% | viability, T/C (second compound 10 µM, first compound 0.003 µM): 4.98% | viability, T/C (second compound 10 µM, first compound 0.00949 µM): 5.12% | viability, T/C (second compound 10 µM, first compound 0.03 µM): 4.52% | viability, T/C (second compound 10 µM, first compound 0.0949 µM): 4.65% | viability, T/C (second compound 10 µM, first compound 0.3 µM): 4.28%

O=C(C=Cn1cnc(-c2cc(C(F)(F)F)cc(C(F)(F)F)c2)n1)NNc1cnccn1 + NC1CC1c1ccc(-c2cccc(O)c2)cc1
IC50 (second compound 0.1 µM): < 3.16 nM | IC50 (second compound 0.316 µM): < 3.16 nM | IC50 (second compound 1 µM): < 3.16 nM | IC50 (second compound 3.16 µM): < 3.16 nM | IC50 (second compound 10 µM): < 3.16 nM | viability, T/C (second compound 0.1 µM, first compound 0.00316 µM): 21.7% | viability, T/C (second compound 0.1 µM, first compound 0.01 µM): 13.6% | viability, T/C (second compound 0.1 µM, first compound 0.0316 µM): 8.69% | viability, T/C (second compound 0.1 µM, first compound 0.1 µM): 4.58% | viability, T/C (second compound 0.1 µM, first compound 0.316 µM): 3.21% | viability, T/C (second compound 0.1 µM, first compound 1 µM): 2.82% | viability, T/C (second compound 0.316 µM, first compound 0.00316 µM): 23% | viability, T/C (second compound 0.316 µM, first compound 0.01 µM): 13.6% | viability, T/C (second compound 0.316 µM, first compound 0.0316 µM): 7.36% | viability, T/C (second compound 0.316 µM, first compound 0.1 µM): 4.45% | viability, T/C (second compound 0.316 µM, first compound 0.316 µM): 3.04% | viability, T/C (second compound 0.316 µM, first compound 1 µM): 2.89% | viability, T/C (second compound 1 µM, first compound 0.00316 µM): 21.3% | viability, T/C (second compound 1 µM, first compound 0.01 µM): 11.7% | viability, T/C (second compound 1 µM, first compound 0.0316 µM): 7.13% | viability, T/C (second compound 1 µM, first compound 0.1 µM): 3.94% | viability, T/C (second compound 1 µM, first compound 0.316 µM): 2.88% | viability, T/C (second compound 1 µM, first compound 1 µM): 2.59% | viability, T/C (second compound 3.16 µM, first compound 0.00316 µM): 22.3% | viability, T/C (second compound 3.16 µM, first compound 0.01 µM): 16.3% | viability, T/C (second compound 3.16 µM, first compound 0.0316 µM): 7.41% | viability, T/C (second compound 3.16 µM, first compound 0.1 µM): 5% | viability, T/C (second compound 3.16 µM, first compound 0.316 µM): 3.23% | viability, T/C (second compound 3.16 µM, first compound 1 µM): 2.75% | viability, T/C (second compound 10 µM, first compound 0.00316 µM): 11.5% | viability, T/C (second compound 10 µM, first compound 0.01 µM): 11.2% | viability, T/C (second compound 10 µM, first compound 0.0316 µM): 7.71% | viability, T/C (second compound 10 µM, first compound 0.1 µM): 5.06% | viability, T/C (second compound 10 µM, first compound 0.316 µM): 2.95% | viability, T/C (second compound 10 µM, first compound 1 µM): 2.62%

Source: PubChem BioAssay AID1918936 (Molecular Pharmacology Branch, DTP, NCI, 2023)
